MIC data for six molecules are collected here from ChEMBL document CHEMBL1141993, “Synthesis and biological activity of new 5-O-sugar modified ketolide and 2-fluoro-ketolide antibiotics” (2005).

Holding throughout (type): functional
Assay [1] has as its system Streptococcus pneumoniae. The assay is described as follows: Minimum inhibitory concentration of compound against Ery-S Streptococcus pneumoniae ATCC 49619 was determined.
The test system of assay [2] is Streptococcus pneumoniae. The assay is described as follows: Minimum inhibitory concentration of compound against Ery-R Streptococcus pneumoniae 303 was determined.
The test system of assay [3] is Streptococcus pyogenes. As to the kind of experiment: Minimum inhibitory concentration of compound against Ery-R Streptococcus pyogenes ATCC 19615 was determined.
Assay [4] relates to Streptococcus pneumoniae. The assay is described as follows: Minimum inhibitory concentration of compound against Ery-R Streptococcus pneumoniae 5032 was determined.
In assay [5] the test system is Streptococcus pneumoniae. As to the kind of experiment: Minimum inhibitory concentration of compound against Ery-S Streptococcus pneumoniae 3773 was determined.
The subject of assay [6] is Streptococcus pyogenes. The assay is described as follows: Minimum inhibitory concentration of compound against Ery-R Streptococcus pyogenes 3262 was determined.
In assay [7] the test system is Streptococcus pneumoniae. As to the kind of experiment: Minimum inhibitory concentration of compound against Ery-R Streptococcus pneumoniae 163 was determined.
Assay [8] has as its system Haemophilus influenzae. As to the kind of experiment: Minimum inhibitory concentration of compound against Ery-S Haemophilus influenzae ATCC 49247 was determined.
The subject of assay [9] is Streptococcus pyogenes. The assay is described as follows: Minimum inhibitory concentration of compound against Ery-R Streptococcus pyogenes 3029 was determined.
The subject of assay [10] is Streptococcus pyogenes. As to the kind of experiment: Minimum inhibitory concentration of compound against Ery-R Streptococcus pyogenes 1850 was determined.
For assay [11], the system named is Streptococcus pyogenes. As to the kind of experiment: Minimum inhibitory concentration of compound against Ery-R Streptococcus pyogenes 1721 was determined.
Assay [12] relates to Haemophilus influenzae. As to the kind of experiment: Minimum inhibitory concentration of compound against Haemophilus influenzae ATCC 49247 Ery-S was determined.
The subject of assay [13] is Streptococcus pyogenes. As to the kind of experiment: Minimum inhibitory concentration of compound against Streptococcus pyogenes ATCC 13029 Ery-R was determined.
The test system of assay [14] is Staphylococcus aureus. As to the kind of experiment: Minimum inhibitory concentration of compound against Staphylococcus aureus ATCC 96:11480 Ery-R was determined.
Assay [15] concerns Streptococcus pneumoniae. As to the kind of experiment: Minimum inhibitory concentration of compound against Streptococcus pneumoniae ATCC 49163 Ery-R was determined.
For assay [16], the system named is Staphylococcus aureus. As to the kind of experiment: Minimum inhibitory concentration of compound against Staphylococcus aureus ATCC 23029 Ery-S was determined.
Assay [17] relates to Streptococcus pyogenes. The assay is described as follows: Minimum inhibitory concentration of compound against Streptococcus pyogenes ATCC 19615 Ery-S was determined.
Assay [18] deals with Streptococcus pneumoniae. As to the kind of experiment: Minimum inhibitory concentration of compound against Streptococcus pneumoniae ATCC 49619 Ery-S was determined.
The test system of assay [19] is Streptococcus pneumoniae. As to the kind of experiment: Minimum inhibitory concentration of compound against Streptococcus pneumoniae ATCC 49303 Ery-R was determined.
Assay [20] relates to Staphylococcus aureus. As to the kind of experiment: Minimum inhibitory concentration of compound against Ery-S Staphylococcus aureus ATCC 29213 was determined.
For assay [21], the system named is Staphylococcus aureus. As to the kind of experiment: Minimum inhibitory concentration of compound against Ery-R Staphylococcus aureus 96:11480 was determined.
For assay [22], the system named is Streptococcus pyogenes. The assay is described as follows: Minimum inhibitory concentration of compound against Ery-S Streptococcus pyogenes ATCC 19615 was determined.

In brackets after ≈: the same amount, converted by molar mass.

For the molecule `CC[C@H]1OC(=O)[C@@](C)(F)C(=O)[C@H](C)[C@@H](O[C@@H]2O[C@H](COCc3ccccc3)[C@@H](O)[C@H](N(C)C)[C@H]2O)[C@@](C)(OC)C[C@@H](C)C(=O)[C@H](C)[C@H]2N(CCCCn3cc(-c4cccc(N)c4)nn3)C(=O)O[C@]12C`, the MIC in [1] is at most 0.125 µg/mL; in assay [2] it was at most 0.125 µg/mL; in assay [3], at most 0.125 µg/mL; in assay [4], 4 µg/mL (≈ 4.14 µM); in assay [5], 8 µg/mL (≈ 8.27 µM); in [6], 4 µg/mL (≈ 4.14 µM). The MIC is at most 0.125 µg/mL in assay [7]; 4 µg/mL (≈ 4.14 µM) in assay [8]; 0.5 µg/mL (≈ 0.517 µM) in assay [9]; 0.25 µg/mL (≈ 0.258 µM) in [10]; 8 µg/mL (≈ 8.27 µM) in [11].

Consider `CC[C@H]1OC(=O)[C@@](C)(F)C(=O)[C@H](C)[C@@H](O[C@@H]2O[C@H](CO)[C@@H](O)[C@H](N(C)C)[C@H]2O)[C@@](C)(OC)C[C@@H](C)C(=O)[C@H](C)[C@H]2N(CCCCn3cc(-c4cccc(N)c4)nn3)C(=O)O[C@]12C`, for which the MIC was at most 0.125 µg/mL in assay [1]; at most 0.125 µg/mL in assay [2]; at most 0.125 µg/mL in assay [3]; above 32 µg/mL in assay [4]; above 32 µg/mL in [5]; above 32 µg/mL in assay [6]. Further, the MIC in assay [7] was at most 0.125 µg/mL; in assay [8] it was above 32 µg/mL; in assay [9], above 32 µg/mL; in assay [10], above 32 µg/mL; in [11], above 32 µg/mL.

As to `CC[C@H]1OC(=O)[C@H](C)C(=O)[C@H](C)[C@@H](O[C@@H]2O[C@H](COCc3ccccc3)[C@@H](O)[C@H](N(C)C)[C@H]2O)[C@@](C)(OC)C[C@@H](C)C(=O)[C@H](C)[C@H]2N(CCCCn3cc(-c4ccccn4)nn3)C(=O)O[C@]12C`, the MIC in assay [12] was 64 µg/mL (≈ 68.4 µM); in assay [13], 2 µg/mL (≈ 2.14 µM); in assay [14], at most 0.125 µg/mL; in assay [15] it was at most 0.125 µg/mL; in assay [16], at most 0.125 µg/mL; in assay [17], at most 0.125 µg/mL. The MIC in assay [18] and in [19] was at most 0.125 µg/mL in each case.

As for `CC[C@H]1OC(=O)[C@@](C)(F)C(=O)[C@H](C)[C@@H](O[C@@H]2O[C@H](COCc3ccccc3)C[C@H](N(C)C)[C@H]2O)[C@@](C)(OC)C[C@@H](C)C(=O)[C@H](C)[C@H]2N(CCCCn3cc(-c4cccc(N)c4)nn3)C(=O)O[C@]12C`, the MIC in assay [1] was at most 0.125 µg/mL; in [2], at most 0.125 µg/mL; in [4], 0.25 µg/mL (≈ 0.263 µM); in assay [5], 4 µg/mL (≈ 4.21 µM); in [6], 0.5 µg/mL (≈ 0.526 µM); in assay [7], at most 0.125 µg/mL. Also, the MIC is 4 µg/mL (≈ 4.21 µM) in assay [8], at most 0.125 µg/mL in assay [9], 0.25 µg/mL (≈ 0.263 µM) in assay [10] and 8 µg/mL (≈ 8.41 µM) in [11].

`CC[C@H]1OC(=O)[C@H](C)C(=O)[C@H](C)[C@@H](O[C@@H]2O[C@H](C)[C@@H](O)[C@H](O)[C@H]2O)[C@@](C)(OC)C[C@@H](C)C(=O)[C@H](C)[C@H]2N(CCCCn3cc(-c4ccccn4)nn3)C(=O)O[C@]12C`: the MIC in [2] is 16 µg/mL (≈ 20 µM); in [7], 2 µg/mL (≈ 2.49 µM); in [20] it was above 64 µg/mL; in assay [8], above 64 µg/mL; in assay [17], 8 µg/mL (≈ 9.98 µM); in assay [18] it was 4 µg/mL (≈ 4.99 µM). This molecule also returned an MIC in assay [21] above 64 µg/mL.

Turning to `CC[C@H]1OC(=O)[C@H](C)C(=O)[C@H](C)[C@@H](O[C@@H]2O[C@H](C)C[C@H](N(C)C)[C@H]2O)[C@](C)(OC)C[C@@H](C)C(=O)[C@H](C)[C@H]2N(CCCCn3cnc(-c4cccnc4)c3)C(=O)O[C@]12C` [TELITHROMYCIN], the MIC in assay [2] was at most 0.125 µg/mL; in assay [4], 0.5 µg/mL (≈ 0.616 µM); in assay [5] it was 1 µg/mL (≈ 1.23 µM); in assay [6], 32 µg/mL (≈ 39.4 µM); in assay [7], at most 0.125 µg/mL; in assay [22], at most 0.125 µg/mL. For the same molecule, the MIC in [20] was at most 0.125 µg/mL; in [8] it was 4 µg/mL (≈ 4.93 µM); in assay [18] it was at most 0.125 µg/mL; in assay [21], at most 0.125 µg/mL; in assay [9], 16 µg/mL (≈ 19.7 µM); in assay [10], 8 µg/mL (≈ 9.85 µM). The MIC in assay [11] was 64 µg/mL (≈ 78.8 µM).
